Our source for the IC50 values is patent US20220106301A1, “ACETAMIDO-PHENYLBENZAMIDE DERIVATIVES AND METHODS OF USING THE SAME” (Athenex, Inc., priority 2020, published 2022).

This assay deals with CYP3A4 (Homo sapiens, UniProt P08684). Put plainly: Determination of CYP3A4 inhibitory activity (human liver microsome, Luciferin-IPA). As to conditions: CYP3A4 IC50 (nM), 37° C. 11 minutes. In short, it runs like this:
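Final compound concentrations 37, 111, 333, 1000 and 3000 nM; reaction at 37° C for 11 min, then luciferin detection reagent 5 min at room temperature with luminescence read-out. IC50 from nonlinear regression of dose-response.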
Background: Liver microsomes are a subcellular fraction often used to study metabolism.

Molecules are shown by their SMILES.

CYP3A4, sequence (P08684 whole entry): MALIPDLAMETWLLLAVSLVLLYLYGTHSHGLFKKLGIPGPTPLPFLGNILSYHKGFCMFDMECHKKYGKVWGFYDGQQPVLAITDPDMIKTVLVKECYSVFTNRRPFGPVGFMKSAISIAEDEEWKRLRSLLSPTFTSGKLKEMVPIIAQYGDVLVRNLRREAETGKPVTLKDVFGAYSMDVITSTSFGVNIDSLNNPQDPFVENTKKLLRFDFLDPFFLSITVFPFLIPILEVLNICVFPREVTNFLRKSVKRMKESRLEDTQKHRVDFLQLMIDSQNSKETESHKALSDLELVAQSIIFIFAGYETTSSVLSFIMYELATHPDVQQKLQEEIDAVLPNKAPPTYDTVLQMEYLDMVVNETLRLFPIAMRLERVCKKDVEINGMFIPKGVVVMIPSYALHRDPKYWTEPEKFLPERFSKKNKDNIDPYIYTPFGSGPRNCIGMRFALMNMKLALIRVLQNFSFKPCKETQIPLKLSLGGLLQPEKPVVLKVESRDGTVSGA

As to `CCN(CCc1ccc(NC(=O)c2cc(OC)c(OC)cc2NC(=O)c2cc(=O)c3ccccc3o2)cc1)Cc1ccc(OCCn2ccnc2)cc1` [Compound 131], the half-maximal inhibitory concentration (IC50) – broadly, the concentration that inhibits the measured activity by half – is 250 to 500 nM.

As to `CCN(CCc1ccc(NC(=O)c2cc(OC)c(OC)cc2NC(=O)c2cc(=O)c3ccccc3o2)cc1)Cc1ccc(OC)c(O)c1` [Compound 133], the IC50 was over 1000 nM.

Take `CCn1cncc1CN(CCc1ccc(NC(=O)c2cc(OC)c(OC)cc2NC(=O)c2cnc3ccccc3n2)cc1)Cc1ccc2c(cnn2C)c1` [Compound 34]: the IC50 was 100 to 250 nM.

For `COc1cc(NC(=O)c2cc(=O)c3ccccc3o2)c(C(=O)Nc2ccc(CCN(Cc3ccc4c(cnn4C)c3)C(=O)OC(C)(C)C)cc2)cc1OC` [Compound 231], the IC50 is over 1000 nM.

In turn, `CCN1CNC=C1CN(CCc1ccc(NC(=O)c2cc(OC)c(OC)cc2NC(=O)c2cc(=O)c3ccccc3o2)cc1)Cc1ccc2cnn(C)c2c1` [Compound 37] had an IC50 of 100 to 250 nM.

`COc1cncc(CN(CCc2ccc(NC(=O)c3cc(OC)c(OC)cc3NC(=O)c3ccc4ccccc4n3)cc2)Cc2ccc3c(cnn3C)c2)c1` [Compound 53] gave an IC50 of 100 to 250 nM.

In the case of `CCCN(CCc1ccc(NC(=O)c2cc(OC)c(OC)cc2NC(=O)c2cc(=O)c3ccccc3o2)cc1)Cc1cccc(-n2ccnc2)c1` [Compound 90], the IC50 is 250 to 500 nM.

`CCOc1cc(C(=O)Nc2ccc(CCN(C)Cc3cccc(-n4cnc(C)c4)c3)cc2)c(NC(=O)c2cc(=O)c3ccccc3o2)cc1OC` [Compound 110]: the IC50 lay within 500 to 1000 nM.

With `COc1cc(NC(=O)c2cc(=O)c3ccccc3o2)c(C(=O)Nc2ccc(CCN)cc2)cc1OC` [Compound 215], the IC50 was over 1000 nM.

In the case of `COc1cncc(CN(CCc2ccc(NC(=O)c3cc(OC)c(OC)cc3NC(=O)c3cc(=O)c4ccccc4o3)cc2)Cc2ccc3c(c2)c(C)nn3C)c1` [Compound 63], the IC50 was 500 to 1000 nM.

As for `COc1cc(NC(=O)c2cc(=O)c3ccccc3o2)c(C(=O)Nc2ccc(CCN(Cc3cccnc3)Cc3cccc(-n4ccnc4)c3)cc2)cc1OC` [Compound 216], the IC50 is 100 to 250 nM.

With `COc1cc(NC(=O)c2cc(=O)c3ccccc3o2)c(C(=O)Nc2ccc(CCN(Cc3ccc4c(cnn4C)c3)Cc3cncs3)cc2)cc1OC` [Compound 140], the 50% inhibitory concentration (IC50) was over 1000 nM.

The compound `COc1cc(NC(=O)C2CC(=O)c3ccccc3O2)c(C(=O)Nc2ccc(CCN(C)Cc3ccc(-c4cccnc4)cc3)cc2)cc1OC` (stereo not shown) [Compound 88] registered an IC50 of 500 to 1000 nM.

In the case of `CCOc1cncc(CN(CCc2ccc(NC(=O)c3cc(OC)c(OC)cc3NC(=O)c3cnc4ccccc4n3)cc2)Cc2ccc3c(cnn3C)c2)c1` [Compound 74], the IC50 is 250 to 500 nM.

With `CN(CCc1ccc(NC(=O)c2ccc(C(=O)O)cc2NC(=O)c2cc(=O)c3ccccc3o2)cc1)Cc1ccc2c(cnn2C)c1` [Compound 271], the IC50 was over 1000 nM.

In the case of `COc1ccc(CN(CCc2ccc(NC(=O)c3cc(OC)c(OC)cc3NC(=O)c3cc(=O)c4ccccc4o3)cc2)Cc2cccc(-n3ccnc3)c2)cc1OC` [Compound 27], the IC50 fell in the range of 100 to 250 nM.

For `COc1cc(NC(=O)c2cc(=O)c3ccccc3o2)c(C(=O)Nc2ccc(CCN(Cc3ccc4c(cnn4C)c3)Cc3cccnc3N)cc2)cc1OC` [Compound 226], the IC50 was over 1000 nM.

The compound `CN(CCc1ccc(NC(=O)c2ccc(C(=O)OCc3cncs3)cc2NC(=O)c2cc(=O)c3ccccc3o2)cc1)Cc1ccc2c(cnn2C)c1` [Compound 85] came in with an IC50 of 250 to 500 nM.

`Cn1ncc2cc(CN(CCc3ccc(NC(=O)c4ccc(C(=O)O)cc4NC(=O)c4cc(=O)c5ccccc5o4)cc3)Cc3ccc4c(cnn4C)c3)ccc21` [Compound 267]: the IC50 is over 1000 nM.

Consider `COc1cc(NC(=O)c2cc(=O)c3ccccc3o2)c(C(=O)Nc2ccc(CCN(Cc3ccc4c(cnn4C)c3)Cc3ccc4c(cnn4C)c3)cc2)cc1OC` [Compound 137], for which the IC50 is over 1000 nM.

With `COc1cc(NC(=O)c2cnc3ccccc3c2)c(C(=O)Nc2ccc(CCN(Cc3cccc(-n4ccnc4)c3)Cc3ccc4c(cnn4C)c3)cc2)cc1OC` [Compound 146], the IC50 fell in the range of 500 to 1000 nM.

`COc1cc(NC(=O)c2cc(=O)c3ccccc3o2)c(C(=O)Nc2ccc(CCN(Cc3cccc(-n4ccnc4)c3)CC(C)C)cc2)cc1OC` [Compound 99] returned an IC50 of 250 to 500 nM.

Compound `COc1cc(NC(=O)c2cnc3ccccc3n2)c(C(=O)Nc2ccc(CCN(Cc3cccc(-n4ccnc4)c3)Cc3ccc4c(cnn4C)c3)cc2)cc1OC` [Compound 30] came in with a concentration for half-maximal inhibition (IC50) of 500 to 1000 nM.

As to `COc1cc(NC(=O)c2cc(=O)c3ccccc3o2)c(C(=O)Nc2ccc(CCN(Cc3cccc(-n4ccnc4)c3)Cc3ccc4nn(C)cc4c3)cc2)cc1OC` [Compound 204], the IC50 lay in the range of 250 to 500 nM.

For the compound `COc1cc(NC(=O)c2cc(=O)c3ccccc3o2)c(C(=O)Nc2ccc(CCN(C)Cc3cccc(-c4nc(C)no4)c3)cc2)cc1OC` [Compound 157], the IC50 was over 1000 nM.

In turn, `COC(=O)c1ccc(C(=O)Nc2ccc(CCN(C)Cc3ccc4c(cnn4C)c3)cc2)c(NC(=O)c2ccccn2)c1` [Compound 277] displayed an IC50 of over 1000 nM.

Compound `COc1cc(NC(=O)c2cc(=O)c3ccccc3o2)c(C(=O)Nc2ccc(CCN(Cc3cncc(OCCN(C)C)c3)Cc3ccc4c(cnn4C)c3)cc2)cc1OC` [Compound 244] displayed an IC50 of over 1000 nM.

For `COc1cc(NC(=O)c2cc(=O)c3ccccc3o2)c(C(=O)Nc2ccc(CCN(Cc3cncc(O)c3)Cc3ccc4c(c3)c(C)nn4C)cc2)cc1OC` [Compound 247], the IC50 is 100 to 250 nM.

In turn, `COc1cc(NC(=O)c2cc(=O)c3ccccc3o2)c(C(=O)Nc2ccc(CCN(C)C(=O)CCc3ccncc3)cc2)cc1OC` [Compound 120] gave an IC50 of 100 to 250 nM.

Consider `COc1cc(NC(=O)c2cc(=O)c3ccccc3o2)c(C(=O)Nc2ccc(CCN(C)Cc3ccc4c(ccn4C)c3)cc2)cc1OC` [Compound 190], for which the IC50 was over 1000 nM.

`COc1cc(NC(=O)c2cnc3ccccc3c2)c(C(=O)Nc2ccc(CCN(Cc3ccc(-n4ccnc4)cc3)Cc3ccc4c(cnn4C)c3)cc2)cc1OC` [Compound 145] registered an IC50 of 500 to 1000 nM.

In turn, `COc1cc(NC(=O)c2cc(=O)c3ccccc3o2)c(C(=O)Nc2ccc(CCN(Cc3cccc(-n4ccnc4)c3)Cc3ccc4c(c3)nnn4C)cc2)cc1OC` [Compound 50] displayed an IC50 of 100 to 250 nM.

Turning to `COc1cc(NC(=O)c2cc(=O)c3ccccc3o2)c(C(=O)NCc2ccc(CN(Cc3cccc(-c4cncs4)c3)Cc3ccc4c(cnn4C)c3)cc2)cc1OC` [Compound 236], the IC50 is over 1000 nM.

In turn, `COc1cc(NC(=O)c2cc(=O)c3cc(C)ccc3o2)c(C(=O)Nc2ccc(CCN(Cc3cncc(O)c3)Cc3ccc4c(cnn4C)c3)cc2)cc1OC` [Compound 59] displayed an IC50 of 100 to 250 nM.

Compound `CCN(CCc1ccc(NC(=O)c2cc(OC)c(OC)cc2NC(=O)c2cc(=O)c3ccccc3o2)cc1)Cc1cccc(-c2ccco2)c1` [Compound 141] returned an IC50 of over 1000 nM.

In the case of `CCN(CCc1ccc(NC(=O)c2cc(OC)c(OC)cc2NC(=O)c2cc(=O)c3ccccc3o2)cc1)Cc1ccc(OC)c(OCCn2ccnc2)c1` [Compound 132], the IC50 was 100 to 250 nM.

`COc1cc(NC(=O)c2cc(=O)c3ccccc3o2)c(C(=O)Nc2ccc(CCN(Cc3cccnc3)Cc3ccc4c(c3)n(C)c(=O)n4C)cc2)cc1OC` [Compound 44] gave an IC50 of 100 to 250 nM.

Turning to `COc1cc(NC(=O)c2cc(=O)c3ccccc3o2)c(C(=O)Nc2ccc(CCN(Cc3cncc(OCCN4CCOCC4)c3)Cc3ccc4c(cnn4C)c3)cc2)cc1OC` [Compound 240], the 50% inhibitory concentration (IC50) is 250 to 500 nM.

`COc1cc(NC(=O)c2cc(=O)c3cc(C)ccc3o2)c(C(=O)Nc2ccc(CCN(Cc3cncc(C)c3)Cc3ccc4c(cnn4C)c3)cc2)cc1OC` [Compound 77] yielded an IC50 of 250 to 500 nM.

With `COc1cncc(CN(CCc2ccc(NC(=O)c3ccc(C(=O)OCCN4CCN(C)CC4)cc3NC(=O)c3cc(=O)c4ccccc4o3)cc2)Cc2ccc3c(cnn3C)c2)c1` [Compound 272], the IC50 lay in the range of 250 to 500 nM.

`CN(CCc1ccc(NC(=O)c2ccc(C(=O)OCc3cccnc3)cc2NC(=O)c2cc(=O)c3ccccc3o2)cc1)Cc1ccc2c(cnn2C)c1` [Compound 84]: the half-maximal inhibitory concentration (IC50) was over 1000 nM.

`COc1cc(NC(=O)C2CC(=O)c3ccccc3O2)c(C(=O)Nc2ccc(CCN(C)Cc3ccc(-c4ccncc4)cc3)cc2)cc1OC` (stereo not shown) [Compound 89] showed an IC50 of over 1000 nM.

For `COc1cc(NC(=O)c2cc(=O)c3ccccc3o2)c(C(=O)Nc2ccc(CCN(C)Cc3ccc(-n4cncn4)cc3)cc2)cc1OC` [Compound 19], the IC50 lay in the range of 250 to 500 nM.

On to `COc1cc(NC(=O)c2cc(=O)c3ccccc3o2)c(C(=O)Nc2ccc(CCN(Cc3cccnc3)Cc3ccc(C)c4ncccc34)cc2)cc1OC` [Compound 250], for which the IC50 fell in the range of 100 to 250 nM.

As to `COc1cc(NC(=O)c2cc(=O)c3ccccc3o2)c(C(=O)Nc2ccc(CCN(Cc3ccc4c(cnn4C)c3)Cc3ccc[n+]([O-])c3)cc2)cc1OC` [Compound 225], the IC50 was over 1000 nM.

Regarding `COc1ccc(CN(CCc2ccc(NC(=O)c3ccc(C(=O)OCc4cccnc4)cc3NC(=O)c3cc(=O)c4ccccc4o3)cc2)Cc2ccc(OC)c(OC)c2)cc1OC` [Compound 265], the IC50 is over 1000 nM.

The compound `COc1cc(NC(=O)c2cc(=O)c3ccccc3o2)c(C(=O)Nc2ccc(CCN(C)Cc3cncn3C)cc2)cc1OC` [Compound 86] showed an IC50 of 250 to 500 nM.

The compound `COc1cc(NC(=O)c2cc(=O)c3ccccc3o2)c(C(=O)Nc2ccc(CCNCc3cccc(-n4ccnc4)c3)cc2)cc1OC` [Compound 125] yielded an IC50 of 100 to 250 nM.

In turn, `COc1cc(NC(=O)c2cc(=O)c3ccccc3o2)c(C(=O)Nc2ccc(CCN(Cc3cncs3)Cc3cccc4cnn(C)c34)cc2)cc1OC` [Compound 200] registered an IC50 of over 1000 nM.

As for `COc1cc(NC(=O)c2cc(=O)c3ccccc3o2)c(C(=O)Nc2ccc(CCN(C)Cc3ccc(-n4ccnc4)cc3)cc2)cc1OC` [Compound 1], the concentration for half-maximal inhibition (IC50) is 100 to 250 nM.

In the case of `COc1cc(NC(=O)c2cc(=O)c3ccccc3o2)c(C(=O)NCc2ccc(CN(Cc3cccnc3)Cc3ccc4c(cnn4C)c3)cc2)cc1OC` [Compound 234], the half-inhibitory concentration (IC50) lay in the range of 100 to 250 nM.

With `COc1cc(NC(=O)c2cc(=O)c3ccccc3o2)c(C(=O)Nc2ccc(CCN(Cc3cncc(OCC(C)C)c3)Cc3ccc4c(cnn4C)c3)cc2)cc1OC` [Compound 239], the IC50 was over 1000 nM.
